Assay in all cases: In vitro competitive activity-based protein profiling (gel-based, FP-Rh or HT-01 probe)
Format in all cases: biochemical

One experiment deals with T1, ABHD6 (Mus musculus, UniProt Q8R2Y0).
T1 construct: Proteomes (mouse brain membrane fraction or cell lysates); from tissue; host or cells: mouse brain membrane fraction (or cell lysates, not specified)
T1 sequence (Q8R2Y0 1-336): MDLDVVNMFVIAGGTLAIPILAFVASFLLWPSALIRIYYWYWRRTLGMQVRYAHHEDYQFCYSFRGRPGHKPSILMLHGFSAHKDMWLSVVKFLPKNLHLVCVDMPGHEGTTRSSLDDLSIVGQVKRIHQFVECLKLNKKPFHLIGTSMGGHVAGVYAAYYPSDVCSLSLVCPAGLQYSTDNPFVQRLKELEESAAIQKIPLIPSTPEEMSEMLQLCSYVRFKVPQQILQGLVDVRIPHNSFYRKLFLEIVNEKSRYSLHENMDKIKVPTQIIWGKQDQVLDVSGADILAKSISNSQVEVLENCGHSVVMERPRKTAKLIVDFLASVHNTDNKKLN
The following applies: for inhibition at 1 µM: 1 μM inhibitor, read-out: % Inhibition at 1 μM, C = ABHD6; for inhibition at 10 µM: 10 μM inhibitor, read-out: % Inhibition at 10 μM, C = ABHD6. The gist of the method:
(§1)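 Mouse brain membrane or cell lysate proteomes (1.0 mg/mL) preincubated with inhibitors 30 min at 37° C, then labelled with FP-Rh or HT-01 for 30 min at 37° C. After SDS-PAGE, activity quantified from fluorescent band intensity.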

The target of the next experiment is T2, FAAH (Mus musculus, UniProt O08914).
T2 construct: Proteomes (mouse brain membrane fraction or cell lysates); from tissue; host or cells: mouse brain membrane fraction (or cell lysates, not specified)
T2 sequence (O08914 1-579): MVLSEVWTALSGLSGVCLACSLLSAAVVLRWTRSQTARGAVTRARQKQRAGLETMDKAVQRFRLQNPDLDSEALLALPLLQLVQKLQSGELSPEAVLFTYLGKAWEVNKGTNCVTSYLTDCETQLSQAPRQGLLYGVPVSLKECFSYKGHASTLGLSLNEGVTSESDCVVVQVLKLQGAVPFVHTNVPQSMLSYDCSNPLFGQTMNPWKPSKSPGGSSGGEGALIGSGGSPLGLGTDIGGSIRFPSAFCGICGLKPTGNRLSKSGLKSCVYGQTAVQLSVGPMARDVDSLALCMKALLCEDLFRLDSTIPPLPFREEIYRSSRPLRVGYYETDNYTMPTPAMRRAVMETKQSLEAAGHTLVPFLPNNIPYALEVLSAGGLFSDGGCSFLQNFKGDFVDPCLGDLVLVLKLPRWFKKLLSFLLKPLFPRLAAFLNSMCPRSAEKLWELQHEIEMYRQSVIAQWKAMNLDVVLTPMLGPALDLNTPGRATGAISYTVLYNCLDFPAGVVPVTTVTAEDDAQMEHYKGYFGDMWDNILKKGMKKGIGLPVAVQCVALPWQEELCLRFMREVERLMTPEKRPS
The following applies: for inhibition at 1 µM: 1 μM inhibitor, read-out: % Inhibition at 1 μM, B = FAAH; for inhibition at 10 µM: 10 μM inhibitor, read-out: % Inhibition at 10 μM, B = FAAH. The gist of the method:
as §1

The target of another experiment is T3, PLA2G7 (Mus musculus, UniProt Q60963).
T3 construct: Proteomes (mouse brain membrane fraction or cell lysates); from tissue; host or cells: mouse brain membrane fraction (or cell lysates, not specified)
T3 sequence (Q60963 22-440): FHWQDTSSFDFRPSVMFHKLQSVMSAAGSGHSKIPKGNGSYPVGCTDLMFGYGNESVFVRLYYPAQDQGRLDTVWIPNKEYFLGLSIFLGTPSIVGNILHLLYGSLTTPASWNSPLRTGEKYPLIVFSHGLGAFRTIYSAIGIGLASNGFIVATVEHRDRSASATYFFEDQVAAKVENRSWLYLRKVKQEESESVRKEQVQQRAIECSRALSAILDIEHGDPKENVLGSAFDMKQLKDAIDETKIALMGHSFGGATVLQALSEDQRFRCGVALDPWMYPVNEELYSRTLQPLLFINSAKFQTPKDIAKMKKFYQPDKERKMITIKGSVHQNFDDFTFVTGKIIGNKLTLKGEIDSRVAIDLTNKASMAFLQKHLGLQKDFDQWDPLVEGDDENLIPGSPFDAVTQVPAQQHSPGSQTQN
The following applies: for inhibition at 1 µM: 1 μM inhibitor, read-out: % Inhibition at 1 μM, D = PLA2G7; for IC50: mouse brain membrane fraction or cell lysates, 30 min preincubation at 37° C.; for inhibition at 10 µM: 10 μM inhibitor, read-out: % Inhibition at 10 μM, D = PLA2G7. The gist of the method:
as §1

For another experiment, the target named is T4, MAGL (Mus musculus, UniProt O35678).
T4 construct: Proteomes (mouse brain membrane fraction or cell lysates); from tissue; host or cells: mouse brain membrane fraction (or cell lysates, not specified)
T4 sequence (O35678 1-303): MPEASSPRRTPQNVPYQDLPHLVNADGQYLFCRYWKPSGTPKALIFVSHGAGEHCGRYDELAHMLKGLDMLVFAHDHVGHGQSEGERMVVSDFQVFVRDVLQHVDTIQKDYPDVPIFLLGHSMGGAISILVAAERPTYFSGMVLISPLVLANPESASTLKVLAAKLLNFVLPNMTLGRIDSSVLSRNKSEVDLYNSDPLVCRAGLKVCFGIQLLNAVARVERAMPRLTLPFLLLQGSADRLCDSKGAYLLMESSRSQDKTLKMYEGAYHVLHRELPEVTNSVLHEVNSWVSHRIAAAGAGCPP
The following applies: for inhibition at 1 µM: 1 μM inhibitor; for inhibition at 10 µM: 10 μM inhibitor. The gist of the method:
as §1

[1] abbreviates: mouse brain membrane fraction or cell lysates, 30 min preincubation at 37° C., read-out: Mouse (IC50 value, nM) ABHD6.
[2] abbreviates: mouse brain membrane fraction or cell lysates, 30 min preincubation at 37° C., read-out: Mouse (IC50 value, nM) FAAH.
[3] abbreviates: mouse brain membrane fraction or cell lysates, 30 min preincubation at 37° C., read-out: Mouse (IC50 value, nM) MAGL.

Where two headings read alike, the source gives them in different places.

Broadly, the inhibition is how much of the control response was suppressed. A word on the IC50: it is the point on the concentration scale where inhibition reaches its midpoint.

On to `CCN(Cc1ccc(C)cc1)C(=O)n1cc(C#N)cn1` [Example 255, 4-Cyano-N-ethyl-N-(4-methylbenzyl)-1H-pyrazole-1-carboxamide], for which the inhibition at 1 µM on ABHD6 (gel-based competitive ABPP) is less than 25%; at FAAH (gel-based competitive ABPP) it was greater than 75%; at PLA2G7 (gel-based competitive ABPP), less than 25%; on MAGL (gel-based competitive ABPP), greater than 75%. The 50% inhibitory concentration (IC50) at ABHD6 (setting [1]) was greater than 1000 nM; at FAAH (setting [2]), less than 100 nM; at PLA2G7, greater than 1000 nM; on MAGL (setting [3]), 100 to 1000 nM.
With `O=C(N1CCN(Cc2cccc(Cl)c2)CC1)n1cc(C(F)(F)F)cn1` [Example 268, (4-(3-Chlorobenzyl)piperazin-1-yl)(4-(trifluoromethyl)-1H-pyrazol-1-yl)methanone], the inhibition at 1 µM at ABHD6 (gel-based competitive ABPP), on FAAH (gel-based competitive ABPP), at PLA2G7 (gel-based competitive ABPP) and at MAGL (gel-based competitive ABPP) was greater than 75% throughout. Also, the concentration for half-maximal inhibition (IC50) on ABHD6 (setting [1]) was less than 100 nM; on FAAH (setting [2]), less than 100 nM; on PLA2G7, 100 to 1000 nM; on MAGL (setting [3]), less than 100 nM.
Take `Cc1cnn(C(=O)N2CCN(C(=O)c3ccccc3)CC2)c1` [Example 164, (4-Benzoylpiperazin-1-yl)(4-methyl-1H-pyrazol-1-yl)methanone]: the inhibition at 1 µM at ABHD6, on FAAH, on PLA2G7 and at MAGL was less than 25% in each case. The inhibition at 10 µM is less than 25% on ABHD6, less than 25% on FAAH, greater than 75% at PLA2G7 and 25 to 75% at MAGL.
As to `CCN(Cc1cccc(OC)c1)C(=O)n1cc(C)cn1` [Example 251, N-Ethyl-N-(3-methoxybenzyl)-4-methyl-1H-pyrazole-1-carboxamide], the inhibition at 1 µM on ABHD6 (gel-based competitive ABPP), at FAAH (gel-based competitive ABPP), on PLA2G7 (gel-based competitive ABPP) and on MAGL (gel-based competitive ABPP) was less than 25% throughout.
Take `O=C(N1CCN(Cc2ccccc2)CC1)n1cc(Cl)cn1` [Example 186, (4-Benzylpiperazin-1-yl)(4-chloro-1H-pyrazol-1-yl)methanone]: the half-inhibitory concentration (IC50) at ABHD6 was less than 100 nM; at FAAH, 100 to 1000 nM; on PLA2G7 it was greater than 1000 nM; on MAGL it was less than 100 nM. Also, the inhibition at 1 µM on ABHD6 is greater than 75%; on FAAH it was greater than 75%; on PLA2G7, less than 25%; on MAGL it was greater than 75%. In addition, the inhibition at 10 µM on ABHD6, on FAAH, on PLA2G7 and on MAGL was greater than 75% throughout.
Turning to `Cc1cnn(C(=O)N(C)CCN(C)C(=O)OC(C)(C)C)c1` [Example 29, tert-Butyl (2-(N,4-dimethyl-1H-pyrazole-1-carboxamido)ethyl)(methyl)carbamate], the inhibition at 1 µM at ABHD6, at FAAH, on PLA2G7 and on MAGL was less than 25% each time. In addition, the inhibition at 10 µM at ABHD6 was greater than 75%; on FAAH, 25 to 75%; at PLA2G7, less than 25%; at MAGL it was 25 to 75%.
Consider `Cc1cnn(C(=O)N2CCCN(Cc3cccc(Oc4ccccc4)c3)CC2)c1` [Example 298, (4-Methyl-1H-pyrazol-1-yl)(4-(3-phenoxybenzyl)-1,4-diazepan-1-yl)methanone], for which the inhibition at 1 µM is less than 25% at ABHD6 (gel-based competitive ABPP), less than 25% on FAAH (gel-based competitive ABPP), less than 25% on PLA2G7 (gel-based competitive ABPP) and greater than 75% on MAGL (gel-based competitive ABPP).
`O=C(N1CCN(Cc2ccc(C(F)(F)F)cc2N2CCCC2)CC1)n1cc(-c2ccccc2C(F)(F)F)cn1` [Example 115, (4-(2-(Pyrrolidin-1-yl)-4-(trifluoromethyl)benzyl)piperazin-1-yl)(4-(2-(trifluoromethyl)phenyl)-1H-pyrazol-1-yl)methanone]: the inhibition at 1 µM at ABHD6 was greater than 75%; at FAAH, less than 25%; on PLA2G7, 25 to 75%; at MAGL, less than 25%. The inhibition at 10 µM is 25 to 75% at ABHD6, 25 to 75% on FAAH, greater than 75% at PLA2G7 and 25 to 75% on MAGL. The IC50 on ABHD6 (setting [1]) lay in the range of 100 to 1000 nM.
Turning to `CCN(Cc1ccc(OC)cc1)C(=O)n1cc(Cl)cn1` [Example 129, 4-Chloro-N-ethyl-N-(4-methoxybenzyl)-1H-pyrazole-1-carboxamide], the inhibition at 1 µM at ABHD6 was less than 25%; on FAAH it was greater than 75%; on PLA2G7, less than 25%; at MAGL, less than 25%. The inhibition at 10 µM at ABHD6 was 25 to 75%; on FAAH, greater than 75%; on PLA2G7, less than 25%; on MAGL it was greater than 75%. For the same compound, the figures for the IC50 on ABHD6 (setting [1]), at FAAH (setting [2]) and at MAGL (setting [3]) were greater than 1000 nM, 100 to 1000 nM and greater than 1000 nM, respectively.
Take `CC(C)c1cnn(C(=O)N2CCN(Cc3c(N4CCCC4)cccc3C(F)(F)F)CC2)c1` [Example 112, (4-Isopropyl-1H-pyrazol-1-yl)(4-(2-(pyrrolidin-1-yl)-6-(trifluoromethyl)benzyl)piperazin-1-yl)methanone]: the inhibition at 1 µM was greater than 75% on ABHD6, less than 25% on FAAH, less than 25% at PLA2G7 and less than 25% at MAGL. Moreover, the inhibition at 10 µM was greater than 75% at ABHD6, less than 25% at FAAH, greater than 75% at PLA2G7 and greater than 75% on MAGL. Further, on ABHD6 (setting [1]), the half-maximal inhibitory concentration (IC50) fell in the range of 100 to 1000 nM.
`N#Cc1cnn(C(=O)N2CCCC2)c1` [Example 203, 1-(Pyrrolidine-1-carbonyl)-1H-pyrazole-4-carbonitrile]: the inhibition at 1 µM on ABHD6 is less than 25%; at FAAH, greater than 75%; at PLA2G7, less than 25%; at MAGL, less than 25%. For the same compound, the inhibition at 10 µM at ABHD6, at FAAH, at PLA2G7 and on MAGL was greater than 75% in each case.
With `CCN(Cc1ccc(N2CCOCC2)cc1)C(=O)n1cc(Cl)cn1` [Example 267, 4-Chloro-N-ethyl-N-(4-morpholinobenzyl)-1H-pyrazole-1-carboxamide], the inhibition at 1 µM was less than 25% at ABHD6 (gel-based competitive ABPP), 25 to 75% at FAAH (gel-based competitive ABPP), less than 25% on PLA2G7 (gel-based competitive ABPP) and 25 to 75% on MAGL (gel-based competitive ABPP).

Source of the values: patent US10093630B2, “Pyrazole compounds and methods of making and using same” (ABIDE THERAPEUTICS, INC., priority 2014, dated 2018).
